These results are taken from patent US20080312287A1, “Compound and Methods For the Treatment of Cancer and Malaria” (University of Washington, priority 2005, published 2008).

In one experiment the target is T1, PfPFT (Plasmodium falciparum, UniProt Q8I503+Q8IHP6).
T1 sequence (Q8I503 1-521): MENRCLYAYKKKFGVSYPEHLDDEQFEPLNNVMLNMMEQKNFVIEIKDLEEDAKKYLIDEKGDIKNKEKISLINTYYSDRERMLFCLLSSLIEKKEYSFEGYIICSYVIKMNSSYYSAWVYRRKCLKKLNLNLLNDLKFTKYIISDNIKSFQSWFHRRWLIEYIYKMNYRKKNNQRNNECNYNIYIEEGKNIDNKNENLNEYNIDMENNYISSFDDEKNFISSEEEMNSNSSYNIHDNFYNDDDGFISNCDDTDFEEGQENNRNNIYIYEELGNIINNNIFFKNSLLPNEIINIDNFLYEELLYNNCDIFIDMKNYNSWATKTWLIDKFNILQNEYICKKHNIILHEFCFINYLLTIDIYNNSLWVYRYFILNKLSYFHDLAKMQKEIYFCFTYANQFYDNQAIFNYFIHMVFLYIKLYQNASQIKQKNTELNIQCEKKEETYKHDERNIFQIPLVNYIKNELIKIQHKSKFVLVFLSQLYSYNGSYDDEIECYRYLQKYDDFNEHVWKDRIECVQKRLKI
T1 sequence (Q8IHP6 1-923): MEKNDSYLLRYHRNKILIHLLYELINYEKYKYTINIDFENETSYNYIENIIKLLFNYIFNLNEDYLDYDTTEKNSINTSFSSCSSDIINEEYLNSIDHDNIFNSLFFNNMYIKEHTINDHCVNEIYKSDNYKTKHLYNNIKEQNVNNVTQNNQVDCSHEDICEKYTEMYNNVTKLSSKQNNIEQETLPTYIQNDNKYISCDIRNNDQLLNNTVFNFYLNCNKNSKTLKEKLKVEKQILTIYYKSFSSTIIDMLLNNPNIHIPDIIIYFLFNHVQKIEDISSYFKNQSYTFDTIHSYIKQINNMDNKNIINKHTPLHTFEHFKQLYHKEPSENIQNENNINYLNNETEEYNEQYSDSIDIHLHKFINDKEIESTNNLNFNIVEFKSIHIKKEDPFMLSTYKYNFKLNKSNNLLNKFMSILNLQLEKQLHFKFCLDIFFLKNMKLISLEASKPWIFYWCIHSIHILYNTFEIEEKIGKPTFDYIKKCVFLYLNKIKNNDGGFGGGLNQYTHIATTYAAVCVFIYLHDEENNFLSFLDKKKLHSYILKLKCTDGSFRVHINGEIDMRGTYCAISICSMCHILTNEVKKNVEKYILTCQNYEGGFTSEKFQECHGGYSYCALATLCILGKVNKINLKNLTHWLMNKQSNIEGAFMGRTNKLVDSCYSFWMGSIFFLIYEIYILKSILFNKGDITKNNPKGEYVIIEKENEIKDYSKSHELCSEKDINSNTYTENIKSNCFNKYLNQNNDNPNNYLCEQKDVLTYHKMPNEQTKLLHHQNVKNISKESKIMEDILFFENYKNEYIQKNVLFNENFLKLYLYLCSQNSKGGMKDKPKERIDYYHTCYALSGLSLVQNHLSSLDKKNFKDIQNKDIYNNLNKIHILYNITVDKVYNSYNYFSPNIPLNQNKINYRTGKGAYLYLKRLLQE
Put plainly: PfPFT inhibition, scintillation proximity assay with partially purified PfPFT. It is filed as biochemical. The note with it: for inhibition at 0.005 µM: read-out: % Inhibition of PfPFT at 5 nM, inhibitor at 5 nM; for inhibition at 0.05 µM: read-out: % Inhibition of PfPFT at 50 nM, inhibitor at 50 nM. In general terms: SPA uses beads or plates that emit light when radiolabelled molecules are held near them.

In another experiment the target is Rat FTase (Rattus norvegicus, UniProt Q02293+Q04631). The experiment is described as follows: Rat farnesyltransferase IC50 determination. The experiment is classed as biochemical. The note with it: concentration decreasing transferase activity twofold.
A further experiment has as its system P. falciparum 3D7. Put plainly: P. falciparum ED50 determination, [3H]-hypoxanthine incorporation, strain 3D7. The experiment is classed as cell-based, Plasmodium falciparum. An excerpt: (§1) Plasmodium strains. The P. falciparum strains used in this study were 3D7 (Netherlands, sensitive) provided by Dr. Pradipsinh Rathod from the University of Washington and K1 (Thailand, ChQ-R, Pyr-R) obtained from the MR4Unit of the American Type Culture Collection (ATCC, Manassas, Va.).
(§2) P. falciparum culture. Strains of P. falciparum were sustained in vitro based on experimental techniques as described by Trager and Jensen.^26 Cultures were maintained in RPMI-1640 (Sigma, St. Louis, […].) with 2 mM L-glutamine, 25 mM HEPES, 33 mM NaHCO3, 20 μg/ml gentamicin sulfate and 20% (v/v) heat-inactivated human plasma type A+ (R^P-20P). Type A+ erythrocytes were obtained from lab donors, washed three times with RPMI, re-suspended in 50% RPMI, and stored at 4° C. Parasites were grown in 10 mL of a 2% hematocrit/RP-20P (v/v) in 50-mL flasks under a 5% CO2, 5% O2, and 90% N2 atmosphere.
(§3) P. falciparum ED50 determination. One […]L of PFTI dissolved in DMSO was added to each well of a 96-well plate followed by the addition of 200 μL of P. falciparum culture at parasitemia and hematocrit of 0.5%. Plates were flushed with 5% CO2, 5% O2, and 90% N2 then incubated at 37° C. for 48 hr. [8-^3H]-hypoxanthine (0.3 μCi, 20 Ci/mmol, American Radiolabeled Chemicals) in 30 μL RP-20P was added to cultures and incubated for an additional 24 hours. Cells were harvested onto filter mats by a Multiharvester (Skatron, Sunnyvale, Calif.) and the radioactivity incorporated into the parasites was counted on a β-scintillation counter. The background level detected with uninfected erythrocytes was subtracted from the data. The ^3H-incorporation into infected RBCs with 1 μL DMSO vehicle alone represents 100% malaria growth. ED50 values were determined by linear regression analysis of the plots of ^3H-hypoxanthine incorporation versus concentration of compound.

Another experiment deals with P. falciparum K1. Put plainly: P. falciparum ED50 determination, [3H]-hypoxanthine incorporation, strain K1. It is filed as cell-based, Plasmodium falciparum.
From the text: as §1, §2, §3

Setting [1] is: Plasmodium falciparum, 3D7, strain 3D7, concentration decreasing hypoxanthine incorporation into parasites twofold, read-out: ED50 3D7.
[2] abbreviates: Plasmodium falciparum, K1, strain K1, concentration decreasing hypoxanthine incorporation into parasites twofold, read-out: ED50 K1.

pEC50, pIC50: −log10 of the molar value. Like-named read-outs stand apart in the source and are kept apart here. Some results are limits rather than exact numbers.

For the molecule `Cn1cnc(S(=O)(=O)N(CCN(Cc2cncn2C)c2ccc(C#N)cc2)Cc2ccccn2)c1` [Compound 8aa, 1-Methyl-1H-imidazole-4-sulfonic acid {2-[(4-cyano-phenyl)-(3-methyl-3H-imidazol-4-ylmethyl)-amino]-ethyl}-pyridin-2-ylmethyl-amide amide], on PfPFT, the inhibition (as a rule, the share of the control response that was lost under treatment) at 0.005 µM was determined as 64% and the inhibition at 0.05 µM came to 93%. For the same molecule, the negative logarithm of the IC50 (pIC50) – broadly, −log10 of the IC50, conventionally taken in molar units – against Rat FTase was 7.37. In addition, the pEC50 in the experiment on P. falciparum 3D7 (setting [1]) was 6.12. Further, the pEC50 in the experiment on P. falciparum K1 (setting [2]) is 6.00.
For the molecule `Cn1cnc(S(=O)(=O)N(CCN(Cc2cncn2C)c2ccc(C#N)cc2)Cc2ccc(C#N)cc2)c1` [Compound 8ae, 1-Methyl-1H-imidazole-4-sulfonic acid (4-cyano-benzyl)-{2-[(4-cyano-phenyl)-(3-methyl-3H-imidazol-4-ylmethyl)-amino]-ethyl}-amide], the Selectivity on PfPFT (ratio of rat to Plasmodium PFT activity) is on record as 3.7. Besides, at PfPFT, the inhibition at 0.005 µM stood at 24% and the inhibition at 0.05 µM worked out at 48%. Further, on Rat FTase, the pIC50 was 6.46. The pEC50 in the experiment with P. falciparum 3D7 (setting [1]) is 5.80. Also, the pEC50 with P. falciparum K1 (setting [2]) was 5.39.
Consider `Cn1cnc(S(=O)(=O)N(CCN(Cc2cncn2C)c2ccc(Br)cc2)Cc2ccccc2)c1` [Compound 8b, 1-Methyl-1H-imidazole-4-sulfonic acid benzyl-{2-[(4-bromo-phenyl)-(3-methyl-3H-imidazol-4-ylmethyl)-amino]-ethyl}-amide], for which, at PfPFT, the inhibition at 0.005 µM stood at 86% and the inhibition at 0.05 µM amounted to 95%. The negative logarithm of the IC50 (pIC50) on Rat FTase was 6.54. The pEC50 with P. falciparum 3D7 (setting [1]) is 6.17. Moreover, in the experiment on P. falciparum K1 (setting [2]), the pEC50 was 5.49.
On to `Cn1cnc(S(=O)(=O)N(CCN(Cc2cncn2C)c2ccc(C#N)cc2)CC2CCOCC2)c1` [Compound 8r, 1-Methyl-1H-imidazole-4-sulfonic acid {2-[(4-cyano-phenyl)-(3-methyl-3H-imidazol-4-ylmethyl)-amino]-ethyl}-(tetrahydro-pyran-4-ylmethyl)-amide], for which, on PfPFT, the inhibition at 0.005 µM came out at 28%. At PfPFT, the inhibition at 0.05 µM was 84%. Further, the figures for the pEC50 in the experiment on P. falciparum 3D7 (setting [1]) and in the experiment with P. falciparum K1 (setting [2]) were 6.24 and 6.40, respectively.
With `Cn1cnc(S(=O)(=O)N(CCN(Cc2cncn2C)c2ccc(C#N)cc2)CC2CCNCC2)c1` [Compound 8s, 1-Methyl-1H-imidazole-4-sulfonic acid {2-[(4-cyano-phenyl)-(3-methyl-3H-imidazol-4-ylmethyl)-amino]-ethyl}-piperidin-4-ylmethyl-amide], on PfPFT (SAR discussion of Table 4), the activity in words result was “inactive”. Besides, the inhibition at 0.005 µM at PfPFT worked out at 5%. In addition, on PfPFT, the inhibition at 0.05 µM is 5%. Also, the pEC50 in the experiment on P. falciparum 3D7 (setting [1]) and with P. falciparum K1 (setting [2]) was < 5.30 each time.
Turning to `CC(=O)N1CCC(CN(CCN(Cc2cncn2C)c2ccc(C#N)cc2)S(=O)(=O)c2cn(C)cn2)CC1` [Compound 8t, 1-Methyl-1H-imidazole-4-sulfonic acid (1-acetyl-piperidin-4-ylmethyl)-{2-[(4-cyano-phenyl)-(3-methyl-3H-imidazol-4-ylmethyl)-amino]-ethyl}-amide], at PfPFT, the inhibition at 0.005 µM is 8% and the inhibition at 0.05 µM is 44%. Besides, the pEC50 in the experiment with P. falciparum 3D7 (setting [1]) is 5.30. The pEC50 in the experiment on P. falciparum K1 (setting [2]) was 5.46.
For the molecule `CC(C)C(=O)N1CCC(CN(CCN(Cc2cncn2C)c2ccc(C#N)cc2)S(=O)(=O)c2cn(C)cn2)CC1` [Compound 8u, 1-Methyl-1H-imidazole-4-sulfonic acid {2-[(4-cyano-phenyl)-(3-methyl-3H-imidazol-4-ylmethyl)-amino]-ethyl}-(1-isobutyryl-piperidin-4-ylmethyl)-amide], on PfPFT, the inhibition at 0.005 µM came out at 57%. In addition, at PfPFT, the inhibition at 0.05 µM was determined as 92%. For the same molecule, the results for the pEC50 in the experiment on P. falciparum 3D7 (setting [1]) and with P. falciparum K1 (setting [2]) were 6.64 and 6.74, respectively.
As to `Cn1cnc(S(=O)(=O)N(CCN(Cc2cncn2C)c2ccc(C#N)cc2)CC2CCN(c3ncccn3)CC2)c1` [Compound 8w, 1-Methyl-1H-imidazole-4-sulfonic acid {2-[(4-cyano-phenyl)-(3-methyl-3H-imidazol-4-ylmethyl)-amino]-ethyl}-(1-pyrimidin-2-yl-piperidin-4-ylmethyl)-amide], on PfPFT (concentration decreasing transferase activity twofold), the negative logarithm of the IC50 (pIC50) is 8.82. For the same molecule, at PfPFT, the inhibition at 0.005 µM is 74% and the inhibition at 0.05 µM was 96%. Further, in the experiment with P. falciparum 3D7 (setting [1]), the pEC50 is 6.89. In addition, the pEC50 with P. falciparum K1 (setting [2]) is 7.07.
In the case of `Cc1cccc(CN(CCN(Cc2cncn2C)c2ccc(C#N)cc2)S(=O)(=O)c2cn(C)cn2)c1` [Compound 8y, 1-Methyl-1H-imidazole-4-sulfonic acid {2-[(4-cyano-phenyl)-(3-methyl-3H-imidazol-4-ylmethyl)-amino]-ethyl}-(3-methyl-benzyl)-amidem-toluene], at PfPFT (inhibitor at 5 nM), the “% Inhibition of PfPFT at 5 nM” value was found to be 61%. Moreover, the “% Inhibition of PfPFT at 50 nM” value on PfPFT (inhibitor at 50 nM) is 94%. The pEC50 is 6.52 in the experiment with P. falciparum 3D7 (strain 3D7, concentration decreasing hypoxanthine incorporation into parasites twofold, read-out: ED50 3D7) and 6.00 with P. falciparum K1 (strain K1, concentration decreasing hypoxanthine incorporation into parasites twofold, read-out: ED50 K1).
Regarding `Cc1ccc(CN(CCN(Cc2cncn2C)c2ccc(C#N)cc2)S(=O)(=O)c2cn(C)cn2)cc1` [Compound 8z, 1-Methyl-1H-imidazole-4-sulfonic acid {2-[(4-cyano-phenyl)-(3-methyl-3H-imidazol-4-ylmethyl)-amino]-ethyl}-(4-methyl-benzyl)-amide], at PfPFT, the inhibition at 0.005 µM was determined as 45% and the inhibition at 0.05 µM amounted to 54%. For the same molecule, in the experiment on P. falciparum 3D7 (Plasmodium falciparum, 3D7, read-out: ED50 3D7), the pEC50 is 5.57. In addition, in the experiment on P. falciparum K1 (Plasmodium falciparum, K1, read-out: ED50 K1), the pEC50 is < 5.30.
In turn, `Cn1cnc(S(=O)(=O)N(CCN(Cc2cncn2C)c2ccc(Br)cc2)Cc2ccccn2)c1` [Compound 13, 1-Methyl-1H-imidazole-4-sulfonic acid {2-[(4-bromo-phenyl)-(3-methyl-3H-imidazol-4-ylmethyl)-amino]-ethyl}-pyridin-2-ylmethyl-amide] had a negative logarithm of the IC50 (pIC50) at Rat FTase of 7.08.
